Experimental data from PubChem BioAssay (NCI).
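1) Cells in 96-well plates. 2) Compound, 48 h, 5 concentrations. 3) Linear interpolation between surrounding doses. 4) Unreached endpoint = highest concentration. GI50 = concentration required for 50% inhibition of growth. At the TGI there is no net growth.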

What was measured:
Test in all cases: inhibition of tumour cell growth, NCI panel, 48 h
CCRF-CEM leukemia = system: CCRF-CEM leukemia
K-562 leukemia = system: K-562 leukemia
MALME-3M melanoma = system: MALME-3M melanoma
MDA-MB-231 breast = system: MDA-MB-231 breast
NCI-H23 lung = system: NCI-H23 lung
RXF 393 renal = system: RXF 393 renal
SN12C renal = system: SN12C renal
SR leukemia = system: SR leukemia
SW-620 colon = system: SW-620 colon
U251 CNS = system: U251 CNS

Row | SMILES | GI50 (CCRF-CEM leukemia) | TGI (CCRF-CEM leukemia) | GI50 (K-562 leukemia) | TGI (K-562 leukemia) | GI50 (MALME-3M melanoma) | TGI (MALME-3M melanoma) | GI50 (MDA-MB-231 breast) | TGI (MDA-MB-231 breast) | GI50 (NCI-H23 lung) | TGI (NCI-H23 lung) | GI50 (RXF 393 renal) | TGI (RXF 393 renal) | GI50 (SN12C renal) | TGI (SN12C renal) | GI50 (SR leukemia) | TGI (SR leukemia) | GI50 (SW-620 colon) | TGI (SW-620 colon) | GI50 (U251 CNS) | TGI (U251 CNS)
1 | CC(=O)[C@H]1CCC/C=C/[C@@H]2C[C@H](O)C[C@H]2[C@H](O)/C=C/C(=O)O1 | 0.395 µM | > 62.7 µM | 0.579 µM | > 100 µM | 0.27 µM | 3.4 µM | 0.487 µM | 2.39 µM | 0.527 µM | 5.58 µM | 0.236 µM | 0.742 µM | 2.17 µM | > 100 µM | 0.313 µM | 86.9 µM | 0.344 µM | 1.56 µM | 0.913 µM | > 100 µM
2 | CCN(CC)CCCC(C)N/C(=C1\C(=O)NC(=O)\C1=C(/NC(C)CCCN(CC)CC)c1cccc(OC)c1)c1cccc(OC)c1 (stereo not given) | 0.816 µM | 2.89 µM | 0.581 µM | 3.86 µM | 0.85 µM | 1.63 µM | 0.574 µM | 1.47 µM | 1.19 µM | 3.15 µM | 0.72 µM | 1.58 µM | 1.27 µM | 7.03 µM | 0.444 µM | 2.13 µM | 0.512 µM | 3.65 µM | 0.844 µM | 1.89 µM
